Results from patent US7863262B2, “Nitroxyl progenitors in the treatment of heart failure” (Johns Hopkins University, priority 2002, dated 2011).
“Also recorded” adds a separate entry of the source. Ends that are not written are not given here.

Tests used:
CGRP receptors = experiment: CGRP receptor antagonism with CGRP8-37 in conscious dogs experiencing heart failure; type: in vivo, mongrel dogs; details: FIG. 6
Experimental: The diagnostic tests included Ees, DEDV, PRSW, tau, Pes, end diastolic pressure (Ped), end diastolic volume (Ved), and Ea.
To test the relation between the inotropic action of HNO/NO^− and calcitonin gene-related peptide (CGRP) signaling, CGRP receptors in mongrel dogs were antagonized using the selective antagonist CGRP8-37 (400 μg in 30 milliliters (ml) of saline bolus, then 2.6 μg/kg/min for 15 min). Plasma CGRP levels measurements were performed by sampling the blood of the dogs. Blood samples (2.5 ml) were withdrawn from arterial, venous, and coronary sinus catheters. After sampling, catheters were flushed with heparanized saline. Samples were centrifuged at 1600 times gravity (g) for 20 minutes at 4° Celsius (C). Plasma was then separated and stored at −20° C. until analysis. Plasma (0.5 ml) was used to extract CGRP by addition of 0.8 ml of ethanol. The mixture was centrifuged at 1600 g for 20 minutes. After removing the supernatant, the extracted samples were air dried at room temperature overnight and then stored at 4° C. Immediately prior to assay, dried samples were reconstituted with assay buffer following manufacturer's instructions (Peninsula Labs) and assayed for CGRP by radioimmunoassay (RIA). CGRP antiserum, code RAS 6012, was used. The dynamic assay range was 1-128 picograms (pg) per 300 microliters (μL) of sample. […]

[1] = system: conscious dogs experiencing congestive heart failure (CHF); type: in vivo, mongrel dogs; details: for cardiac load as measured by Edv (preload) and Ea (afterload): FIG. 1
[2] = Long-term infusion (3-4 hours of perfusion); type: in vivo
Experimental: In particular embodiments the HNO/NO^− donating compound is administered in the form of a pharmaceutical composition. A pharmaceutical composition comprising an effective amount of the HNO/NO^− donating compound as an active ingredient could be easily prepared by standard procedures well known in the art, with pharmaceutically acceptable non-toxic solvents and/or sterile carriers, if necessary. Such preparations are administered orally or in injectable form, or directly to myocardial tissue. In other embodiments the HNO/NO^− donor is administered without a pharmaceutical carrier. In particular embodiments the HNO/NO^− donor is administered by a short-term infusion, such as for 5 to 20 minutes. In other embodiments the HNO/NO^− donor is administered by a long-term infusion, such as from 3-4 hours.

reperfused myocardium = details: anesthetized rabbits; given 5 minutes prior to reperfusion (after ischemia); Ma et al. 1999; cited from earlier work
rat renal tissue = details: given during ischemia and 5 minutes before reperfusion; Takahira et al. 2001; cited from earlier work
[3] = system: normal conscious dogs under beta-antagonist therapy with propranolol; type: in vivo; details: propranolol 2 milligrams/kg in bolus; normal subject

## calcitonin gene-related peptide8-37 (VTHRLAGLLSRSGGVVKNNFVPTNVGSKAF; ends and bridges not checked; UniProt P06881 90-119, looked up, fragment) [CGRP8-37]
CGRP receptors; CGRP8-37 alone
  inotropic effect as measured by Ees: modest negative inotropic effect
CGRP receptors; CGRP8-37 combined with Angeli's salt versus Angeli's salt alone
  effect on the positive inotropic effect of Angeli's salt (Ees): effectively prevented the HNO/NO^−-mediated, positive inotropic effect of Angeli's salt

## [Na+].[Na+].[O-][N+]([O-])=NO [Angeli's salt, sodium trioxodinitrate]
[1]
  cardiac load as measured by Edv (preload) and Ea (afterload): lowered left ventricular preload; also recorded: reduced the cardiac load
[2]
  persistence of beneficial effects during long-term infusion: retains its beneficial effects during 3-4 hours of perfusion
Reperfused myocardium
  myocardial ischemia/reperfusion injury: increased myocardial ischemia/reperfusion injury
Rat renal tissue
  neutrophil infiltration into renal tissue: contributed to neutrophil infiltration into the tissue

## CC(C)N[N+]([O-])=N[O-].[Na+] [IPA/NO, isopropylamine (IPA)/NO(Na(CH3)2CHNHN(O)NO)]
[1]
  cardiac load as measured by Edv (preload) and Ea (afterload): reduced the cardiac load
[1]; IPA/NO doses one-half to one-quarter those of Angeli's salt, nearly equivalent blood pressure decrease
  cardiac contractility compared with Angeli's salt (Ees): superior to those caused by the HNO/NO^− donating compound Angeli's salt; also recorded: exerted a stronger positive inotropic effect; also recorded: greater increase in cardiac contractility than Angeli's salt

## CC(C)NCC(O)COc1cccc2ccccc12 (stereo not drawn) [propranolol]
[3]
  myocardial performance: reduction in myocardial performance
